Experimental data: patent US12643876B2, “Deuterated hpki kinase inhibitor, and preparation method therefor and use thereof” (ZHUHAI YUFAN BIOTECHNOLOGIES CO., LTD, priority 2020, dated 2026)

Key:
[1] = Solid state stability of free base crystalline form A (HPLC); format: physicochemical; settings: 60° C./1 day, closed space
Procedure: Solid State Stability of Free Base Crystalline Form A
The XRPD patterns of an initial sample of the free base crystalline form A described above and the free base crystalline form A after 1 day of standing in a closed space at 60° C. are shown in FIG. 5, and the HPLC results are shown in Table 5.

[2] = Free base crystalline form B standing at room temperature (XRPD); format: physicochemical; settings: closed space, 5 days
From the text: The XRPD patterns of free base crystalline form B of compound A2 before and after standing at room temperature are shown in FIG. 9.

[3] = Free base crystalline form B nitrogen purging (XRPD); format: physicochemical; settings: nitrogen purging at 30° C. for 20 minutes
[4] = microsome metabolite identification / stability, human liver microsomes; format: in vitro ADME; settings: 37° C.
Procedure: (§1) The operation steps for microsome metabolite identification were as follows:
(§2) For the sample with T=60 min, 4 μL of the test sample working solution (1.0 mM), 316 μL of the liver microsome working solution (1.27 mg/mL) and 80 μL of the reduced coenzyme working solution were added sequentially to start the reaction; for the sample with T=0 min, 316 μL of the liver microsome working solution (1.27 mg/mL) was added, and 80 μL of the reduced coenzyme working solution was added to start the reaction, with no test sample incubation; after incubation at 37° C. for 60 min, 1200 μL of stop buffer was added to stop the enzymatic reaction; and for the sample with T=0 min, 4 μL of the test sample working solution (1.0 mM) was added. The sample plate was placed on a vortexer and vortexed at 600 rpm for 5 min. The mixture was centrifuged at 4000 rpm for 10 min, and the supernatant was removed, mixed and purged with nitrogen to dryness at room temperature. The resulting solution was re-dissolved with 300 μL of 10% acetonitrile (0.1% FA), the […] centrifuged at 4000 rpm for 15 min, and the supernatant was transferred to a detection plate for mass spectrometry. Mass spectrometry was performed using an LC/Q-Exactive plus. 7-ethoxycoumarin (10 μM) was selected as a positive control compound, using the procedure same as that of the compounds.

[5] = microsome metabolite identification / stability, mouse liver microsomes; format: in vitro ADME; settings: 37° C.
Procedure: as §1, §2

[6] = microsome metabolite identification / stability, rat liver microsomes; format: in vitro ADME; settings: 37° C.
Procedure: as §1, §2

[7] = microsome metabolite identification / stability, cynomolgus monkey liver microsomes; format: in vitro ADME; settings: 37° C.
Procedure: as §1, §2

[8] = microsome metabolite identification / stability, beagle liver microsomes; format: in vitro ADME; settings: 37° C.
Procedure: as §1, §2

HPLC Area (%) of peak 4 (RRT 1.06) ([1]; initial sample 0.10) [%]	HPLC Area (%) of peak 3 (RRT 1.05) ([1]; initial sample 0.22) [%]	HPLC Area (%) of peak 1 (RRT 0.95) ([1]; initial sample 0.42) [%]	HPLC Area (%) of peak 2 (RRT 1.00, main peak) ([1]; initial sample 99.26) [%]	crystalline form stability (XRPD) [3]	remaining percentage of the parent nucleus after 60 min [4] [%]	remaining percentage of the parent nucleus after 60 min [5] [%]	remaining percentage of the parent nucleus after 60 min [6] [%]	remaining percentage of the parent nucleus after 60 min [7] [%]	remaining percentage of the parent nucleus after 60 min [8] [%]	SMILES	crystalline form stability (XRPD) [2]
					43.84	1.13	2.44	0.36	0.17	CN1CCC(n2cc(-c3cnc(N)c(OCc4cccc(C#CC(C)(C)O)c4)c3)cn2)CC1 [Compound A1, reference compound]	
					51.82	1.24	11.21	9.11	0.12	CN1CCC(c2ncc(-c3cnc(N)c(OCc4cccc(C#CC(C)(C)O)c4)c3)s2)CC1 [Compound B1, reference compound]	
					70.4	42.8	43.9	23.4	8.9	[2H]C([2H])([2H])N1CCC(c2ncc(-c3cnc(N)c(OCc4cccc(C#CC(C)(C)O)c4)c3)s2)CC1 [Compound B2]	

Further lines, the compound ahead of its results:

SMILES	HPLC Area (%) of peak 4 (RRT 1.06) ([1]; initial sample 0.10) [%]	HPLC Area (%) of peak 3 (RRT 1.05) ([1]; initial sample 0.22) [%]	HPLC Area (%) of peak 1 (RRT 0.95) ([1]; initial sample 0.42) [%]	HPLC Area (%) of peak 2 (RRT 1.00, main peak) ([1]; initial sample 99.26) [%]	crystalline form stability (XRPD) [3]	remaining percentage of the parent nucleus after 60 min [4] [%]	remaining percentage of the parent nucleus after 60 min [5] [%]	remaining percentage of the parent nucleus after 60 min [6] [%]	remaining percentage of the parent nucleus after 60 min [7] [%]	remaining percentage of the parent nucleus after 60 min [8] [%]	crystalline form stability (XRPD) [2]
[2H]C([2H])([2H])N1CCC(n2cc(-c3cnc(N)c(OCc4cccc(C#CC(C)(C)O)c4)c3)cn2)CC1 [4-(3-(((2-amino-S-(1-(1-trideuteromethylpiperidin-4-yl)-1H-pyrazol-4-yl)pyridin-3-yl)oxy)methyl)phenyl)-2-methylbut-3-yn-2-ol]	0.09	0.17	0.41	99.33	conversion in crystalline forms						tendency of converting into the free base crystalline form A
[2H]C([2H])([2H])N1CCC(n2cc(-c3cnc(N)c(OCc4cccc(C#CC(C)(C)O)c4)c3)cn2)CC1 [Compound A2, 4-(3-(((2-amino-S-(1-(1-trideuteromethylpiperidin-4-yl)-1H-pyrazol-4-yl)pyridin-3-yl)oxy)methyl)phenyl)-2-methylbut-3-yn-2-ol]						83.9	55.0	52.1	29.6	7.0	
